Results from patent US20260234566A1, “CELL LINES FOR EXPRESSION OF LHCG RECEPTOR” (Ares Trading S.A., priority 2023, published 2026).
“And” between values parts separate entries of the source, which are not always exact repeats. Equal values may be shown once.

How the values were obtained:
[1] = tested on: adenylate cyclase (AC); assay: Reporter Gene Assay with forskolin stimulation, HEK 293-T WT; assay type: cell-based, human; settings: single wells
Description: (§1) Second transfection efficiency evaluation. In order to assess the second transfection efficiency, a Reporter Gene Assay (RGA) was performed. […] HEK 293-T LHCGR Luciferase cells were stimulated with forskolin. As described in literature, forskolin is a diterpene able to activate the adenylate cyclase (AC) allowing the increasing of intracellular cAMP in a wide variety of cell types. Exploiting forskolin ability, the RGA assay enables the evaluation of Reporter Gene Transcription in response to cAMP accumulation without involving the LHCG receptor. The luminescence emitted after Reporter Gene Transcription, was quantified using reagents available on the market. HEK 293-T LHCGR Luciferase and HEK 293-T without transfection were seeded in a 96 well plate and stimulated with different concentration of forskolin. After incubation, the ONE-Glo EX Luciferase assay system (Promega, E8120) was added in each well and, after 10 minutes shaking, results were acquired using the plate reader.

[2] = tested on: adenylate cyclase (AC); assay: Reporter Gene Assay with forskolin stimulation, HEK 293-T LHCGR Luciferase; assay type: cell-based, human; settings: single wells
Description: as §1, with “reader. Second transfection stability. HEK 293-T LHCGR Luciferase were stimulated with forskolin 4 μM or left unstimulated. Results were reported as a fold change of treated cells over unstimulated control. All % CVs were calculated among fold changes obtained for the three banks and resulted below 25%. The mean and the SD of the 3 banks were calculated and used to generate the graphs in FIG. 4B.” for “reader.”

## C=C[C@@]1(C)CC(=O)[C@]2(O)[C@@]3(C)[C@@H](O)CCC(C)(C)[C@@H]3[C@H](O)[C@H](OC(C)=O)[C@@]2(C)O1 [Forskolin, forskolin]
[1]; forskolin 0.004 μM
  Luminescence values expressed as RLUs: 92 RLUs and 61 RLUs and 62 RLUs
[1]; forskolin 0.04 μM
  Luminescence values expressed as RLUs: 124 RLUs and 88 RLUs and 68 RLUs
[1]; forskolin 400 μM
  Luminescence values expressed as RLUs: 227 RLUs and 130 RLUs and 124 RLUs
[2]; forskolin 0.004 μM
  Luminescence values expressed as RLUs: 4221 RLUs and 4333 RLUs and 3899 RLUs
[2]; forskolin 0.04 μM
  Luminescence values expressed as RLUs: 7547 RLUs and 6804 RLUs and 7636 RLUs
[2]; forskolin 0.4 μM
  Luminescence values expressed as RLUs: 65001 RLUs and 62733 RLUs and 72165 RLUs
[2]; forskolin 4 μM
  Luminescence values expressed as RLUs: 310180 RLUs and 299010 RLUs and 303780 RLUs
[2]; forskolin 40 μM
  Luminescence values expressed as RLUs: 374090 RLUs and 378740 RLUs and 387970 RLUs
[2]; forskolin 400 μM
  Luminescence values expressed as RLUs: 205580 RLUs and 197090 RLUs and 195210 RLUs
